# Measured values reported in patent US9204653B2, “5-fluoro pyrimidine derivatives” (DOW AGROSCIENCES LLC, priority 2008, dated 2015).
# Read-outs that look alike come from different tables or passages of the source.
# System: Mycosphaerella graminicola; Anamorph: Septoria tritici; Bayer Code SEPTTR
# Test: Leaf blotch of wheat, foliar fungicide treatment, one day protectant (1DP) or three day curative (3DC)
# Assay type: in vivo, Septoria tritici on wheat plants (variety Yuma)
# Settings: Zymoseptoria tritici; for pest or weed control at 50 ppm / pest or weed control at 200 ppm: % disease control rating
# [1] = 24 h, one day protectant (1DP), 25 ppm (first 1DP column), percent control rating, read-out: SETTTR 1DP 25 ppm
# [2] = 24 h, one day protectant (1DP), 25 ppm as printed (second 1DP column), percent control rating, read-out: SETTTR 1DP 25 ppm
# [3] = 72 h, three day curative (3DC), 25 ppm, percent control rating, read-out: SEPTTR 3DC 25 ppm
# [4] = 72 h, three day curative (3DC), percent control rating, read-out: SEPTTR 3DC 100 ppm
# [5] = 24 h, one day protectant (1DP), 25 ppm, rating of percent disease control, read-out: SETTTR 1DP 25 ppm
# [6] = 24 h, one day protectant (1DP), rating of percent disease control, read-out: SEPTTR 1DP 100 ppm
# [7] = 72 h, three day curative (3DC), 25 ppm, rating of percent disease control, read-out: SEPTTR 3DC 25 ppm
# [8] = 72 h, three day curative (3DC), rating of percent disease control, read-out: SEPTTR 3DC 100 ppm
# [9] = 24 h, one day protectant, 25 ppm, rating of percent disease control, read-out: SETTTR 1DP 25 ppm
# [10] = 24 h, one day protectant, rating of percent disease control, read-out: SEPTTR 1DP 100 ppm
# [11] = 72 h, three day curative, 25 ppm, rating of percent disease control, read-out: SEPTTR 3DC 25 ppm
# [12] = 72 h, three day curative, rating of percent disease control, read-out: SEPTTR 3DC 100 ppm
# [13] = 24 h, one day protectant (1DP), 25 ppm, percent disease control rating, read-out: SETTTR 1DP 25 ppm
# [14] = 24 h, one day protectant (1DP), percent disease control rating, read-out: SEPTTR 1DP 100 ppm
# [15] = 72 h, three day curative (3DC), 25 ppm, percent disease control rating, read-out: SEPTTR 3DC 25 ppm
# [16] = 72 h, three day curative (3DC), percent disease control rating, read-out: SEPTTR 3DC 100 ppm
SMILES,pest or weed control at 25 ppm [5],pest or weed control at 100 ppm [6],pest or weed control at 25 ppm [7],pest or weed control at 100 ppm [8],also measured
COc1cccc(COc2ncc(F)c(NS(=O)(=O)c3ccccc3)n2)c1 [Compound 1013],–,–,–,–,pest or weed control at 25 ppm [1]: 0 to 25%; pest or weed control at 25 ppm [2]: 0 to 25%; pest or weed control at 25 ppm [3]: 0 to 25%; pest or weed control at 100 ppm [4]: 0 to 25%
NNc1nc(OCc2ccccc2)ncc1F [Compound 258],51 to 75%,76 to 100%,26 to 50%,51 to 75%,–
CN(N)c1nc(OCc2ccccc2)ncc1F [Compound 395],0 to 25%,0 to 25%,26 to 50%,51 to 75%,–
CCOCCOc1cccc(COc2ncc(F)c(N)n2)c1 [Compound 752],76 to 100%,76 to 100%,76 to 100%,76 to 100%,–
CC(Oc1ncc(F)c(/N=C2\CCCCN2C)n1)c1ccc(F)cc1 (stereo not drawn) [Compound 424],51 to 75%,76 to 100%,51 to 75%,76 to 100%,–
Cc1ccc(COc2ncc(F)c(NC(=S)Nc3ccccc3F)n2)cc1 [Compound 778],76 to 100%,76 to 100%,76 to 100%,76 to 100%,–
CNc1nc(OCc2ccc(OC)c(OC)c2)ncc1F [Compound 589],–,–,–,–,pest or weed control at 25 ppm [9]: 0 to 25%; pest or weed control at 100 ppm [10]: 0 to 25%; pest or weed control at 25 ppm [11]: 0 to 25%; pest or weed control at 100 ppm [12]: 0 to 25%
Nc1nc(OCc2ccccc2F)ncc1F [Compound 713],–,–,–,–,pest or weed control at 25 ppm [9]: 76 to 100%; pest or weed control at 100 ppm [10]: 76 to 100%; pest or weed control at 25 ppm [11]: 51 to 75%; pest or weed control at 100 ppm [12]: 76 to 100%
C=CCOc1ncc(F)c(N/N=C/c2ccco2)n1 [Compound 1064],–,–,–,–,pest or weed control at 25 ppm [1]: 0 to 25%; pest or weed control at 25 ppm [2]: 0 to 25%; pest or weed control at 25 ppm [3]: 0 to 25%; pest or weed control at 100 ppm [4]: 0 to 25%
CC(C)C(=O)Oc1ncc(F)c(/N=C/N(C)C)n1 [Compound 420],76 to 100%,76 to 100%,76 to 100%,76 to 100%,–
O=C(Nc1nc(OCc2cccc(F)c2)ncc1F)OCc1cccc(F)c1 [Compound 360],76 to 100%,76 to 100%,76 to 100%,76 to 100%,–
Cc1cc(COc2ncc(F)c(N)n2)no1 [Compound 939],–,–,–,–,"pest or weed control at 50 ppm (24 h, one day protectant): 0 to 25%; pest or weed control at 200 ppm (24 h, one day protectant): 76 to 100%"
Fc1ccccc1CNc1nc(OCc2ccccn2)ncc1F [Compound 888],–,–,–,–,"pest or weed control at 50 ppm (24 h, one day protectant): 0 to 25%; pest or weed control at 200 ppm (24 h, one day protectant): 51 to 75%"
Fc1cnc(OCC(F)(F)F)nc1NCc1ccc2c(c1)OCO2 [Compound 950],–,–,–,–,"pest or weed control at 50 ppm (24 h, one day protectant): 0 to 25%; pest or weed control at 200 ppm (24 h, one day protectant): 0 to 25%"
Nc1nc(OCc2ccco2)ncc1F [Compound 409],76 to 100%,76 to 100%,76 to 100%,76 to 100%,–
COc1cccc(COc2ncc(F)c(NNc3nccc(C(F)(F)F)n3)n2)c1 [Compound 1045],–,–,–,–,pest or weed control at 25 ppm [1]: 0 to 25%; pest or weed control at 25 ppm [2]: 0 to 25%; pest or weed control at 25 ppm [3]: 0 to 25%; pest or weed control at 100 ppm [4]: 0 to 25%
Cc1ccc(OC(=O)Oc2ncc(F)c(/N=C/N(C)C)n2)cc1 [Compound 610],–,–,–,–,pest or weed control at 25 ppm [9]: 76 to 100%; pest or weed control at 100 ppm [10]: 76 to 100%; pest or weed control at 25 ppm [11]: 26 to 50%; pest or weed control at 100 ppm [12]: 51 to 75%
Fc1cnc(OCc2ccccc2Cl)nc1NCc1cccs1 [Compound 810],–,–,–,–,"pest or weed control at 200 ppm (24 h, one day protectant): 76 to 100%"
CCOC(=O)COC(=O)Nc1nc(OCc2ccc(C)cc2)ncc1F [Compound 176],–,–,–,–,pest or weed control at 25 ppm [13]: 51 to 75%; pest or weed control at 100 ppm [14]: 76 to 100%; pest or weed control at 25 ppm [15]: 76 to 100%; pest or weed control at 100 ppm [16]: 76 to 100%
Cc1nc(C)c(COc2ncc(F)c(N)n2)s1 [Compound 772],76 to 100%,76 to 100%,76 to 100%,76 to 100%,–
Cc1ccc(C(C)C)cc1C(C)Oc1ncc(F)c(N)n1 (stereo not drawn) [Compound 617],–,–,–,–,pest or weed control at 25 ppm [9]: 76 to 100%; pest or weed control at 100 ppm [10]: 76 to 100%; pest or weed control at 25 ppm [11]: 76 to 100%; pest or weed control at 100 ppm [12]: 76 to 100%

SMILES,pest or weed control at 25 ppm [5],pest or weed control at 100 ppm [6],pest or weed control at 25 ppm [7],pest or weed control at 100 ppm [8],also measured
O=C(Nc1nc(OCc2ccccc2)ncc1F)c1ccccc1 [Compound 435],76 to 100%,76 to 100%,51 to 75%,76 to 100%,–
Nc1nc(OCC2CC2(F)F)ncc1F (stereo not drawn) [Compound 509],0 to 25%,0 to 25%,26 to 50%,0 to 25%,–
CC#CCOc1ncc(F)c(N)n1 [Compound 489],0 to 25%,51 to 75%,76 to 100%,76 to 100%,–
COc1c(F)cc(F)cc1COc1ncc(F)c(N)n1 [Compound 796],76 to 100%,76 to 100%,76 to 100%,76 to 100%,–
CCCNC(=O)Nc1nc(OCc2ccn(C)n2)ncc1F [Compound 114],–,–,–,–,pest or weed control at 25 ppm [13]: 0 to 25%; pest or weed control at 100 ppm [14]: 0 to 25%; pest or weed control at 25 ppm [15]: 0 to 25%; pest or weed control at 100 ppm [16]: 0 to 25%
CSCOc1ncc(F)c(/N=C/N(C)C)n1 [Compound 1127],–,–,–,–,pest or weed control at 25 ppm [1]: 76 to 100%; pest or weed control at 25 ppm [2]: 76 to 100%; pest or weed control at 25 ppm [3]: 76 to 100%; pest or weed control at 100 ppm [4]: 76 to 100%
"O=[N+]([O-])c1ccccc1SNc1nc(OCc2ccc(F)cc2)ncc1F [Compound 39, N-[5-Fluoro-2-(4-fluorobenzyloxy)-pyrimidin-4-yl]-S-(2-nitrophenyl)-thiohydroxylamine]",–,–,–,–,pest or weed control at 25 ppm [13]: 76 to 100%; pest or weed control at 100 ppm [14]: 76 to 100%; pest or weed control at 25 ppm [15]: 0 to 25%; pest or weed control at 100 ppm [16]: 0 to 25%
CCOCCOc1cccc(COc2ncc(F)c(NC)n2)c1 [Compound 375],0 to 25%,0 to 25%,26 to 50%,76 to 100%,–
O=c1nc(NCc2ccccc2F)c(F)c[nH]1 [Compound 832],–,–,–,–,"pest or weed control at 50 ppm (24 h, one day protectant): 0 to 25%; pest or weed control at 200 ppm (24 h, one day protectant): 0 to 25%"
COc1cccc(COc2ncc(F)c(NO)n2)c1 [Compound 161],–,–,–,–,pest or weed control at 25 ppm [13]: 76 to 100%; pest or weed control at 100 ppm [14]: 76 to 100%; pest or weed control at 25 ppm [15]: 26 to 50%; pest or weed control at 100 ppm [16]: 76 to 100%
CSCCOc1ncc(F)c(N)n1 [Compound 625],–,–,–,–,pest or weed control at 25 ppm [9]: 0 to 25%; pest or weed control at 100 ppm [10]: 26 to 50%; pest or weed control at 25 ppm [11]: 0 to 25%; pest or weed control at 100 ppm [12]: 26 to 50%
CC(Oc1ncc(F)c(N)n1)c1c(Cl)ccc(Cl)c1Cl (stereo not drawn) [Compound 382],76 to 100%,76 to 100%,0 to 25%,76 to 100%,–
O=C(Nc1ccccc1)Nc1nc(O)ncc1F [Compound 967],–,–,–,–,pest or weed control at 25 ppm [1]: 26 to 50%; pest or weed control at 25 ppm [2]: 26 to 50%; pest or weed control at 25 ppm [3]: 51 to 75%; pest or weed control at 100 ppm [4]: 51 to 75%
N#Cc1cccc(COc2ncc(F)c(NC(=O)NCc3ccccc3)n2)c1 [Compound 183],0 to 25%,0 to 25%,0 to 25%,0 to 25%,–
Fc1cnc(OCc2ccc(Cl)cc2)nc1NCCc1ccccc1 [Compound 908],–,–,–,–,"pest or weed control at 50 ppm (24 h, one day protectant): 76 to 100%; pest or weed control at 200 ppm (24 h, one day protectant): 76 to 100%"
CCOCNc1nc(OCc2cccc(F)c2)ncc1F [Compound 498],76 to 100%,76 to 100%,76 to 100%,76 to 100%,–
Nc1nc(OCc2ccc(OCc3ccc(F)cc3)cc2)ncc1F [Compound 648],–,–,–,–,pest or weed control at 25 ppm [9]: 76 to 100%; pest or weed control at 100 ppm [10]: 76 to 100%; pest or weed control at 25 ppm [11]: 76 to 100%; pest or weed control at 100 ppm [12]: 76 to 100%
COc1cccc(COc2ncc(F)c(NC(=O)NCc3ccccc3F)n2)c1 [Compound 201],0 to 25%,0 to 25%,0 to 25%,0 to 25%,–
Fc1ccccc1CNC(=S)Nc1nc(OCc2ccccc2)ncc1F [Compound 438],51 to 75%,76 to 100%,0 to 25%,0 to 25%,–
COc1cccc(COc2ncc(F)c(NN3CCOCC3)n2)c1 [Compound 754],0 to 25%,0 to 25%,0 to 25%,26 to 50%,–
CC(=O)Nc1nc(OCc2cccc(Oc3ccccc3)c2)ncc1F [Compound 815],–,–,–,–,"pest or weed control at 50 ppm (24 h, one day protectant): 76 to 100%; pest or weed control at 200 ppm (24 h, one day protectant): 76 to 100%"
